From the supplement of paper PMC13380429
Where a name gives a salt, the structure may show the parent alone.

Experiments:
Details in all cases: 72 h
Calu-3 [1] = test: cell viability relative to DMSO; higher = less toxic
Vero E6 [2] = test: as above
U2OS [3] = test: as above
HepG2 [4] = test: as above
Caco-2 [5] = test: as above
Vero E6 [6] = test: relative viability EC50 (midpoint between 100% and the lowest measured viability); higher = less toxic
U2OS [7] = test: as above
Calu-3 [8] = test: drug sensitivity score (DSS) for viability; higher = more toxic; extreme values may be limits of the assay
Vero E6 [9] = test: as above
U2OS [10] = test: as above
HepG2 [11] = test: as above
Caco-2 [12] = test: as above
Calu-3 [13] = test: relative viability EC50 (midpoint between 100% and the lowest measured viability); higher = less toxic
Caco-2 [14] = test: as above

| SMILES | cell viability (Calu-3 [1]; 1 nM) | cell viability (Calu-3 [1]; 10 nM) | cell viability (Calu-3 [1]; 100 nM) | cell viability (Calu-3 [1]; 1000 nM) | cell viability (Calu-3 [1]; 10000 nM) | cell viability (Vero E6 [2]; 1 nM) | cell viability (Vero E6 [2]; 10 nM) | cell viability (Vero E6 [2]; 100 nM) | cell viability (Vero E6 [2]; 1000 nM) | cell viability (Vero E6 [2]; 10000 nM) | cell viability (U2OS [3]; 1 nM) | cell viability (U2OS [3]; 10 nM) | cell viability (U2OS [3]; 100 nM) | cell viability (U2OS [3]; 1000 nM) | cell viability (U2OS [3]; 10000 nM) | cell viability (HepG2 [4]; 1 nM) | cell viability (HepG2 [4]; 10 nM) | cell viability (HepG2 [4]; 100 nM) | cell viability (HepG2 [4]; 1000 nM) | cell viability (HepG2 [4]; 10000 nM) | cell viability (Caco-2 [5]; 1 nM) | cell viability (Caco-2 [5]; 10 nM) | cell viability (Caco-2 [5]; 100 nM) | cell viability (Caco-2 [5]; 1000 nM) | cell viability (Caco-2 [5]; 10000 nM) | relative viability EC50 (Vero E6 [6]) | relative viability EC50 (U2OS [7]) | drug sensitivity score (Calu-3 [8]) | drug sensitivity score (Vero E6 [9]) | drug sensitivity score (U2OS [10]) | drug sensitivity score (HepG2 [11]) | drug sensitivity score (Caco-2 [12]) | relative viability EC50 (Calu-3 [13]) | relative viability EC50 (Caco-2 [14]) |
| --- | --- | --- | --- | --- | --- | --- | --- | --- | --- | --- | --- | --- | --- | --- | --- | --- | --- | --- | --- | --- | --- | --- | --- | --- | --- | --- | --- | --- | --- | --- | --- | --- | --- | --- |
| CC(C)NC[C@@H](C(=O)N1CCN(c2ncnc3c2[C@H](C)C[C@H]3O)CC1)c1ccc(Cl)cc1 [GDC-0068] | 101% | 108% | 89.9% | 80.8% | 56.7% | 105% | 102% | 100% | 101% | 93.2% | 105% | 100% | 101% | 96.8% | 87.2% | 109% | 115% | 108% | 98.9% | 71.4% | 107% | 107% | 96% | 83.2% | 69.1% | > 10 µM | > 10 µM | 4.3 | 0 | 0.3 | 1.3 | 3 |  |  |
| CNC1CC(N)C(O)C(OC2OC(CO)C(O)C3OC4(OC(C(N)CO)C(O)C(O)C4O)OC23)C1O (stereo not drawn) [Hygromycin B] | 95.7% | 93.5% | 92.9% | 97.5% | 89.8% | 95.9% | 93.4% | 95.4% | 91.5% | 104% | 104% | 97.8% | 99% | 103% | 93.9% |  |  |  |  |  | 97.2% | 105% | 107% | 108% | 95.9% | > 10 µM | > 10 µM | 0 | 0 | 0 |  | 0 | > 10 µM | > 10 µM |
| CN1c2cc3c(cc2N=C(c2ccc(C(=O)O)cc2)c2ccccc21)C(C)(C)CCC3(C)C [LE-135] | 108% | 108% | 91.2% | 102% | 98.5% | 99% | 102% | 98.2% | 87.3% | 78.7% | 101% | 106% | 100% | 97.8% | 57.2% | 85.1% | 104% | 86.8% | 87.6% | 74% | 88.8% | 100% | 101% | 89.7% | 60.1% | > 10 µM |  | 0 | 1.7 | 2.5 | 2.4 | 3.6 | > 10 µM |  |
| CCCCCCOc1cc2c(cc1N(C)c1ncc(C(=O)O)cn1)C(C)(C)CCC2(C)C [PA-452] |  |  |  |  |  |  |  |  |  |  | 97.7% | 92.8% | 97% | 101% | 103% |  |  |  |  |  |  |  |  |  |  |  | > 10 µM |  |  | 0 |  |  |  |  |
| CN1[C@@H]2C[C@@H](OC(=O)[C@H](CO)c3ccccc3)C[C@H]1[C@@H]1O[C@@H]12 [SCOPOLAMINE HYDROBROMIDE] | 96.6% | 99.1% | 91.6% | 101% | 105% | 94.2% | 99% | 94.4% | 97.2% | 115% | 98% | 98.7% | 99.3% | 95.9% | 96.4% |  |  |  |  |  |  |  |  |  |  | > 10 µM | > 10 µM | 0 | 0 | 0 |  |  | > 10 µM |  |
| Cc1cc(Nc2cc(C)c(C#N)c(N[C@@H](C)CCCC(C)(C)O)n2)n[nH]1 [TC-A-2317] | 98% | 89.4% | 84.7% | 77.2% | 40.8% | 105% | 104% | 96.4% | 75.7% | 22% | 106% | 98.2% | 96.9% | 68.8% | 7.2% | 110% | 103% | 93.2% | 62.8% | 54.3% | 103% | 102% | 94% | 77.6% | 25.3% | 1.4 µM | 1.33 µM | 6.7 | 7.8 | 9.4 | 7.5 | 7.2 | 0.799 µM | 1.47 µM |
| C=CCNc1nc(NCC=C)nc(N2CCN(C(c3ccc(F)cc3)c3ccc(F)cc3)CC2)n1 [almitrine] | 111% | 96.2% | 96.5% | 92% | 98.2% | 91.7% | 107% | 89.2% | 95.4% | 91.2% | 102% | 96.1% | 99.4% | 94.6% | 97.9% | 98.8% | 92.6% | 80.9% | 77.9% | 61% | 91.3% | 79.4% | 102% | 88.2% | 87.8% | > 10 µM | > 10 µM | 0 | 0.4 | 0 | 6.1 | 0.6 | > 10 µM | > 10 µM |
| CCC(C)(C)c1ccc(CC(C)CN2C[C@@H](C)O[C@@H](C)C2)cc1 (stereo partly drawn) [amorolfine] | 93.8% | 109% | 92.9% | 100% | 94.7% |  |  |  |  |  |  |  |  |  |  |  |  |  |  |  | 86% | 114% | 91.8% | 84.8% | 76% |  |  | 0 |  |  |  | 2.5 | > 10 µM | > 10 µM |
| COC(=O)C1=CCCN(C)C1 [arecoline] |  |  |  |  |  |  |  |  |  |  |  |  |  |  |  |  |  |  |  |  |  |  |  |  |  |  |  | 0.6 |  | 0 | 0 |  |  |  |
| COC(=O)N[C@H](C(=O)N[C@@H](Cc1ccccc1)[C@@H](O)CN(Cc1ccc(-c2ccccn2)cc1)NC(=O)[C@@H](NC(=O)OC)C(C)(C)C)C(C)(C)C [atazanavir] | 99.3% | 99.7% | 91.4% | 91% | 97.1% | 96.3% | 102% | 90.2% | 99.6% | 112% | 111% | 97.1% | 102% | 94% | 99.1% |  |  |  |  |  | 90.5% | 112% | 92.9% | 84.8% | 80.1% | > 10 µM | > 10 µM | 0 | 0 | 0 |  | 2.3 | > 10 µM | > 10 µM |
